Experimental data published in article PMC4468202, “Improved Visualization and Specific Binding for Metabotropic Glutamate Receptor Subtype 1 (mGluR1) Using [^11C]ITMM with Ultra-High Specific Activity in Small-Animal PET” (PLoS ONE, 2015).

Key:
[1] = target: mGluR1 (Rattus norvegicus, UniProt P23385); experiment: In vitro binding assay with [^18F]FITM using cerebellum homogenate; design: from tissue; host or cells: cerebellum homogenate; conditions: previous unpublished data, S4 Fig
[2] = test system: translocater protein (TSPO); design: method as in PMID 20705143; conditions: ipsilateral side of an ischemic rat brain; cited from earlier work

Sequence of mGluR1 (P23385 19-1199): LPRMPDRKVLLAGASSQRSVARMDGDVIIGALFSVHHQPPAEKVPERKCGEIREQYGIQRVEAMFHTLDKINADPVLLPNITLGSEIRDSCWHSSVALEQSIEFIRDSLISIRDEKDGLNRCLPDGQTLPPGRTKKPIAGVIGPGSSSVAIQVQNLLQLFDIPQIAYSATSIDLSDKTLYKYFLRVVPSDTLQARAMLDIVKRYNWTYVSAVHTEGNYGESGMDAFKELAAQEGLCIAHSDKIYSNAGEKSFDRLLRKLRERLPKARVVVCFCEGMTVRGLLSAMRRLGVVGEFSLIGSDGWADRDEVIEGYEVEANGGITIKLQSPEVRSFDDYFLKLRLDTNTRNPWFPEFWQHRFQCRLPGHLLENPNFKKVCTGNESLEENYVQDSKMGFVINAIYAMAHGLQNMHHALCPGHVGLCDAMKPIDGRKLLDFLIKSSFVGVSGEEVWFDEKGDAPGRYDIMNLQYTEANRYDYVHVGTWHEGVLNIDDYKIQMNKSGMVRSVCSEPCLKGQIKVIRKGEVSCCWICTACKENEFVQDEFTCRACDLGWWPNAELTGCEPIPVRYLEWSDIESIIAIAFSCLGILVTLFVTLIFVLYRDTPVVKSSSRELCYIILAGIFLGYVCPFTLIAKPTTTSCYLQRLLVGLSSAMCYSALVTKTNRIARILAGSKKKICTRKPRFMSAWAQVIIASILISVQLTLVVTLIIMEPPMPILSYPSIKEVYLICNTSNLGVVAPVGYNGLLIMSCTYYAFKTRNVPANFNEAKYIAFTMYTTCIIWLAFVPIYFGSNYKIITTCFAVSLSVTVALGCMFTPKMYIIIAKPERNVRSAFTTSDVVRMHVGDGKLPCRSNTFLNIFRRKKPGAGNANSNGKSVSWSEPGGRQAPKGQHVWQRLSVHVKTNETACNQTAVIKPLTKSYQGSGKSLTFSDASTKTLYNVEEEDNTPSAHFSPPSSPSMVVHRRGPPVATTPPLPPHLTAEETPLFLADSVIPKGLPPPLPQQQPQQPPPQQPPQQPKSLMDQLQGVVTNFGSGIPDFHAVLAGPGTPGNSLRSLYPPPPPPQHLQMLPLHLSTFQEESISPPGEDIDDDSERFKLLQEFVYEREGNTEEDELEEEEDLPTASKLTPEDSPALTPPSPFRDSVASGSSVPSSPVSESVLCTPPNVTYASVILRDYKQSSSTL

CC(C)Nc1cc(-c2csc(N(C)C(=O)c3ccc([18F])cc3)n2)ncn1 [[^18F]FITM, 4-[18F]fluoro-N-[4-[6-(isopropylamino)pyrimidin-4-yl]-1,3-thiazol-2-yl]-N-methylbenzamide]
binding sites [1]: two binding sites of [^18F]FITM possessing high and low affinities

Cn1c(=O)n(CC(=O)N([11CH3])Cc2ccccc2)c2nc(-c3ccccc3)ncc21 [[^11C]DAC]
binding potential, ultra-high SA vs conventional SA [2]: roughly two times higher
